Experimental data reported in article PMC8557913, “Characterization of Phosphopantetheinyl Hydrolase from Mycobacterium tuberculosis” (Microbiology Spectrum, 2021).

Columns and labels:
[1] = target: T1, Sfp (Bacillus subtilis, UniProt P39135); experiment: transfer of biotin-labelled Ppt to apo-carrier protein, streptavidin blot; format: biochemical; details: labelled compound; co-substrate apo-AcpM (also PKS13 ACP, EcEntB, EcACP, KpACP, PaACP); 50 mM Tris-HCl pH 7.5, 15 mM MgCl2, 37°C
T1 sequence (P39135 1-224): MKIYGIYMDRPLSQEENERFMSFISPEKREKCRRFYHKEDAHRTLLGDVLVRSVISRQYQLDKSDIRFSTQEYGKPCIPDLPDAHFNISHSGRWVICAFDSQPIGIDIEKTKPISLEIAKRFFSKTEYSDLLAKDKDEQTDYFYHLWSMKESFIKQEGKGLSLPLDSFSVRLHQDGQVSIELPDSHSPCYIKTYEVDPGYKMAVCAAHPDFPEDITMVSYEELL

[2] = target: PptH (Rv2795c) (Mycobacterium tuberculosis, UniProt I6YEE1); experiment: biochemical
Sequence of PptH (Rv2795c) (I6YEE1 1-310): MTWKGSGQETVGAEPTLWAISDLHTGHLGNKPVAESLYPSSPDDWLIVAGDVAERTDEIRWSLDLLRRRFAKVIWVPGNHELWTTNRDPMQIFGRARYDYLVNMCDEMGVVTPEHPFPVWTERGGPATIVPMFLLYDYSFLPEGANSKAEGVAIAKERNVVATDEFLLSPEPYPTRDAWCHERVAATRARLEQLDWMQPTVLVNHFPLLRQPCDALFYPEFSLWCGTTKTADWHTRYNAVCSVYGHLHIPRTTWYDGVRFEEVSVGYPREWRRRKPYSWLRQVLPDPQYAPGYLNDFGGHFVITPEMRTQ

## CC(C)(COP(=O)(O)OP(=O)(O)OC[C@H]1O[C@@H](n2cnc3c(N)ncnc32)[C@H](O)[C@@H]1OP(=O)(O)O)[C@@H](O)C(=O)NCCC(=O)NCCSCC(=O)NCCOCCOCCNC(=O)CCCC[C@@H]1SC[C@@H]2NC(=O)N[C@@H]21 [biotin-PEG-ACM-CoA]
[1]
  transfer of biotin-labelled Ppt to apo-carrier protein, streptavidin blot: Upon incubation of the *CoA probe with apo-AcpM and Sfp

## Nc1ncnc2c1ncn2[C@@H]1O[C@H](COP(=O)(O)O)[C@@H](O)[C@H]1O [AMP]
[2]
  IC50: 456 µM
